Results reported in ChEMBL document CHEMBL5532637, “Antimicrobial activity of natural and semi-synthetic carbazole alkaloids” (Eur J Med Chem, 2023).
Values after ≈ are worked out from the molar mass of the structure shown.

Tests used:
[1] = Cytotoxicity against green monkey Vero cells; type: toxicity, cell-based; details: green monkey (Chlorocebus sabaeus)
[2] = system: Mycobacterium tuberculosis; test: Antibacterial activity against Mycobacterium tuberculosis H37Rv assessed as inhibition of bacterial growth by two-fold serial dilution method; type: functional
Bacillus mycoides = test: Antimicrobial activity against Bacillus mycoides assessed as inhibition of microbial growth incubated for 18 to 20 hrs by broth microdilution method; type: functional; details: time 18-20 hrs
[3] = system: Mycolicibacterium smegmatis; test: Antimicrobial activity against Mycobacterium smegmatis assessed as inhibition of microbial growth incubated for 18 to 20 hrs by broth microdilution method; type: functional; details: time 18-20 hrs
Candida albicans [4] = test: Antimicrobial activity against Candida albicans assessed as inhibition of microbial growth incubated for 18 to 20 hrs by broth microdilution method; type: functional; details: time 18-20 hrs
Staphylococcus aureus [5] = test: Antimicrobial activity against methicillin-resistant Staphylococcus aureus assessed as inhibition of microbial growth incubated for 18 to 20 hrs by broth microdilution method; type: functional; details: time 18-20 hrs
Staphylococcus aureus [6] = test: Antibacterial activity against Staphylococcus aureus assessed as zone of inhibition by filter paper disk-agar diffusion method; type: functional
Aspergillus fumigatus = test: Antifungal activity against Aspergillus fumigatus assessed as inhibition of fungal growth by serial dilution method; type: functional
Cryptococcus neoformans = test: Antifungal activity against Cryptococcus neoformans assessed as inhibition of fungal growth by serial dilution method; type: functional
Nannizzia gypsea = test: Antifungal activity against Microsporum gypseum assessed as inhibition of fungal growth by serial dilution method; type: functional
Staphylococcus aureus [7] = test: Antimicrobial activity against methicillin-resistant Staphylococcus aureus assessed as inhibition of microbial growth incubated for 18 hrs by agar diffusion method; type: functional
Staphylococcus aureus [8] = test: Antimicrobial activity against Staphylococcus aureus assessed as inhibition of microbial growth incubated for 18 hrs by agar diffusion method; type: functional
Bacillus subtilis [9] = test: Antimicrobial activity against Bacillus subtilis assessed as zone of inhibition incubated for 24 hrs by disc diffusion method; type: functional
Staphylococcus aureus [10] = test: Antimicrobial activity against Staphylococcus aureus assessed as zone of inhibition incubated for 24 hrs by disc diffusion method; type: functional
Shigella flexneri = test: Antimicrobial activity against Shigella flexneri assessed as zone of inhibition incubated for 24 hrs by disc diffusion method; type: functional
Aspergillus niger = test: Antimicrobial activity against Aspergillus niger assessed as zone of inhibition incubated for 48 hrs by disc diffusion method; type: functional
Candida albicans [11] = test: Antimicrobial activity against Candida albicans assessed as zone of inhibition incubated for 48 hrs by disc diffusion method; type: functional
Escherichia coli [12] = test: Antimicrobial activity against Escherichia coli assessed as zone of inhibition incubated for 24 hrs by disc diffusion method; type: functional
Bacillus subtilis [13] = test: Antibacterial activity against Bacillus subtilis 168 assessed as inhibition of bacterial growth by microdilution assay; type: functional
Staphylococcus simulans = test: Antibacterial activity against Staphylococcus simulans 22 assessed as inhibition of bacterial growth by microdilution assay; type: functional
Enterococcus faecium = test: Antibacterial activity against Enterococcus faecium BM 4147 assessed as inhibition of bacterial growth by microdilution assay; type: functional
Moraxella catarrhalis = test: Antibacterial activity against Moraxella catarrhalis ATCC 43617 assessed as inhibition of bacterial growth by microdilution assay; type: functional
Staphylococcus aureus [14] = test: Antibacterial activity against Staphylococcus aureus ATCC 29213 assessed as inhibition of bacterial growth by microdilution assay; type: functional
[15] = system: Mycobacterium tuberculosis; test: Antibacterial activity against Mycobacterium tuberculosis assessed as inhibition of bacterial growth; type: functional
Candida albicans [16] = test: Antifungal activity against Candida albicans SC5314 assessed as inhibition of fungal growth incubated for 24 hrs by microtiter plate reader assay; type: functional
Klebsiella pneumoniae = test: Antibacterial activity against Klebsiella pneumoniae assessed as inhibition of bacterial growth incubated for 20 hrs by broth microdilution method; type: functional
Bacillus subtilis [17] = test: Antibacterial activity against Bacillus subtilis assessed as inhibition of bacterial growth incubated for 20 hrs by broth microdilution method; type: functional
Escherichia coli [18] = test: Antibacterial activity against Escherichia coli expressing blaNDM-1 gene assessed as inhibition of bacterial growth incubated for 20 hrs by broth microdilution method; type: functional
Escherichia coli [19] = test: Antibacterial activity against Escherichia coli expressing recombinant blaNDM-1 gene assessed as inhibition of bacterial growth incubated for 20 hrs by broth microdilution method; type: functional
Escherichia coli [20] = test: Antibacterial activity against wild type Escherichia coli assessed as inhibition of bacterial growth incubated for 20 hrs by broth microdilution method; type: functional
Staphylococcus aureus [21] = test: Antibacterial activity against wild type Staphylococcus aureus assessed as inhibition of bacterial growth incubated for 20 hrs by broth microdilution method; type: functional
Staphylococcus aureus [22] = test: Antibacterial activity against methicillin-resistant Staphylococcus aureus assessed as inhibition of bacterial growth incubated for 20 hrs by broth microdilution method; type: functional
Candida parapsilosis = test: Antifungal activity against Candida parapsilosis assessed as inhibition of fungal growth incubated for 24 hrs by microplate reader assay; type: functional; details: Lodderomyces parapsilosis
Candida albicans [23] = test: Antifungal activity against Candida albicans assessed as inhibition of fungal growth incubated for 24 hrs by microplate reader assay; type: functional
Nakaseomyces glabratus = test: Antifungal activity against Candida glabrata assessed as inhibition of fungal growth incubated for 24 hrs by microplate reader assay; type: functional
Staphylococcus aureus [24] = test: Antibacterial activity against Staphylococcus aureus assessed as inhibition of bacterial growth; type: functional, organism-based
Bacillus subtilis [25] = test: Antibacterial activity against Bacillus subtilis assessed as inhibition of bacterial growth; type: functional
Bacillus cereus = test: Antibacterial activity against Bacillus cereus assessed as inhibition of bacterial growth; type: functional, organism-based

Q: With COc1ccc2[nH]c3c(OCc4ccccc4)cc(C)cc3c2c1 as the compound, how does the IC50 [1] read?
A: > 128 µM

Q: What about the MIC90 [2] of the same compound?
A: 31.7 µg/mL (≈ 99.9 µM)

Q: What does the source list for COc1ccc2[nH]c3c(O)cccc3c2c1Cl?
A: MIC (Bacillus mycoides): 32 µg/mL; MIC [3]: 32 µg/mL; MIC (Candida albicans [4]): 32 µg/mL; MIC (Staphylococcus aureus [5]): 32 µg/mL

Q: With COc1cc2c(cc1O)[nH]c1cc(O)c(C=O)cc12 [CLAULANSINE J] as the compound, how does the “inhibition zone (IZ)” value (Staphylococcus aureus [6]) read?
A: 14.2 mm

Q: Which results are given for Cc1ccc2c(c1)c1c(n2CCCNCc2ccccc2)CCCC1?
A: MIC80 (Aspergillus fumigatus): 32 µg/mL (≈ 96.2 µM); MIC80 (Cryptococcus neoformans): 1 µg/mL (≈ 3.01 µM); MIC80 (Nannizzia gypsea): 0.016 µg/mL (≈ 0.0481 µM)

Q: What does the source list for CC(C)=CC1OC(=O)c2cc(O)c3[nH]c4ccccc4c3c21 (stereo not drawn)?
A: MIC (Staphylococcus aureus [7]): 64 µg/mL; MIC (Staphylococcus aureus [8]): 64 µg/mL

Q: With Cn1c2ccccc2c2cc(-c3cc(-c4ccccn4)nc(N)n3)ccc21 as the compound, how does the “inhibition zone (IZ)” value (Bacillus subtilis [9]) read?
A: 18 mm

Q: What about the “inhibition zone (IZ)” value (Staphylococcus aureus [10]) of the same compound?
A: 18 mm

Q: What about the “inhibition zone (IZ)” value (Shigella flexneri) of the same compound?
A: 18 mm

Q: What about the “inhibition zone (IZ)” value (Aspergillus niger) of the same compound?
A: 12 mm

Q: And the “inhibition zone (IZ)” value (Candida albicans [11])?
A: 15 mm

Q: And the “inhibition zone (IZ)” value (Escherichia coli [12])?
A: 10 mm

Q: For c1ccc(CCNC2CCCc3c2[nH]c2ccc(C4CCCCC4)cc32)cc1 (stereo not drawn), which MIC (Bacillus subtilis [13]) is on record?
A: 2 µg/mL (≈ 5.37 µM)

Q: What about the MIC (Staphylococcus simulans) of the same compound?
A: 2 µg/mL (≈ 5.37 µM)

Q: And the MIC (Enterococcus faecium)?
A: 2 µg/mL (≈ 5.37 µM)

Q: And the MIC (Moraxella catarrhalis)?
A: 1 µg/mL (≈ 2.68 µM)

Q: And the MIC (Staphylococcus aureus [14])?
A: 2 µg/mL (≈ 5.37 µM)

Q: For Cc1cc2c([nH]c3ccc4c(c32)C=CC(C)(C)O4)c(-c2c(O)c(C)cc3c2[nH]c2ccc4c(c23)C=CC(C)(C)O4)c1O [CLAUSENAWALLINE A], which MIC [15] is on record?
A: 12.5 µg/mL (≈ 22.5 µM)

Q: With Clc1ccc2[nH]c3c(c2c1)CCCC3NCc1ccc(-c2ccccc2)cc1 (stereo not drawn) as the compound, how does the MIC50 (Candida albicans [16]) read?
A: 6.8 µM (≈ 2.63 µg/mL)

Q: Which results are given for Fc1cc(F)c2c(c1)[nH]c1ccc(F)cc12?
A: MIC (Klebsiella pneumoniae): 1.5 µg/mL (≈ 6.78 µM); MIC (Bacillus subtilis [17]): 1.5 µg/mL (≈ 6.78 µM); MIC (Escherichia coli [18]): 1.5 µg/mL (≈ 6.78 µM); MIC (Escherichia coli [19]): 1.5 µg/mL; MIC (Escherichia coli [20]): 1.5 µg/mL (≈ 6.78 µM); MIC (Staphylococcus aureus [21]): 1.5 µg/mL (≈ 6.78 µM); MIC (Staphylococcus aureus [22]): 1.5 µg/mL (≈ 6.78 µM)

Q: Which MIC80 (Candida parapsilosis) does the source give for COc1ccc(CNCCCn2c3ccccc3c3ccccc32)cc1 here?
A: 8 µg/mL (≈ 23.2 µM)

Q: And the MIC80 (Candida albicans [23])?
A: 16 µg/mL (≈ 46.4 µM)

Q: And the MIC80 (Nakaseomyces glabratus)?
A: 4 µg/mL (≈ 11.6 µM)

Q: For COC12C(=O)N(C)C(=O)C1(OC)c1c([nH]c3cc(Cl)ccc13)-c1[nH]c3cc(Cl)ccc3c12 (stereo not drawn), which MIC (Staphylococcus aureus [24]) is on record?
A: 3.1 µg/mL (≈ 6.59 µM)

Q: And the MIC (Bacillus subtilis [25])?
A: 3.1 µg/mL (≈ 6.59 µM)

Q: For Cc1cc2c([nH]c3ccccc32)c2c1OC(C)(C)C=C2 [GRINIMIBINE], which IC50 (Bacillus cereus) is on record?
A: 3.4 µM
